Patent US4831155A (priority 1984, dated 1989)
Like-named read-outs stand apart in the source and are kept apart here.

Experiments:
[1] = acute toxicity (lethal dose) in mice; format: in vivo; details: mouse, in vivo, injection, determined within two hours, read-out: lethal dose 50 (LD50)
Method: (§1) The activity of the this product was evaluated in terms of its toxicity (lethal dose: LD) and its behavioural effects.
(§2) The experiments were conducted using male Swiss mice with a weight of about 30 g.
(§3) The acute toxic effects of the heptyl derivative were also evaluated as a comparison with the effects of physostigmine. […] Compared with physostigmine, the lethal dose 50 of the heptyl derivative is about 60 times greater, the LD50 for physostigmine being 0.6 mg/kg. The LD50 values were determined within two hours from the injection. Beyond this time, no obvious effects were observable. The LD50 values of other derivatives according to the present invention, evaluated with the same method resulted as follows: […]

[2] = test system: male Swiss mice; experiment: spontaneous locomotor activity in mice (two-part cage); format: in vivo
Method: (§4) In particular, with regard to this latter aspect, an evaluation was made of the effects of the substance on spontaneous locomotor activity, and of the antagonisms of the heptyl derivative towards the central stimulating effects of anticholinergic drugs (scopolamine). An evaluation was also made of the effects of the substance on the electrocorticographic activity and on the inhibition of cerebral acetylcholinesterase (AchE) "in vivo".
as §2
The test used for measuring the spontaneous locomotor activity was that employing a cage divided into two parts.

[3] = biological target: T1, acetylcholinesterase originating from "Electrophorus electricus" (Electrophorus electricus, UniProt O42275)
T1 sequence (O42275 24-633): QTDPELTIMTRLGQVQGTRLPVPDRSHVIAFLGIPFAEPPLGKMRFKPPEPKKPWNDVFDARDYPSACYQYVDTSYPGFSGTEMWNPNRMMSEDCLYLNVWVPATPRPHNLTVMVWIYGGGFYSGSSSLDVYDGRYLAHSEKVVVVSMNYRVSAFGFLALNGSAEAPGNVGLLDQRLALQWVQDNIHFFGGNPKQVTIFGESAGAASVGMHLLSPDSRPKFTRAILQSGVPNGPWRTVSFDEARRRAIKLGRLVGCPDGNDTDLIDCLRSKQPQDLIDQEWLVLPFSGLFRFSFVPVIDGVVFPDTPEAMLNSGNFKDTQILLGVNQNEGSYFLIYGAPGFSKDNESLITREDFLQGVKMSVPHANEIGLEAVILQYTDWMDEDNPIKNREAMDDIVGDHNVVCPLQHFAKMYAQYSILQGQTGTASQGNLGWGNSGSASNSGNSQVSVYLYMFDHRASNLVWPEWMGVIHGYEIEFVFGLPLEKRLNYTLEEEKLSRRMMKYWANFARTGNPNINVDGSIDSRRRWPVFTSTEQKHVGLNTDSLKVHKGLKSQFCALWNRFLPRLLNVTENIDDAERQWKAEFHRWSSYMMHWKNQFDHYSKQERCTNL

[4] = test system: acetylcholinesterase (AchE); experiment: acetylcholinesterase (AChE) inhibition in the brain and serum after i.p. administration; format: in vivo, rats; details: n=4; for AChE inhibition, brain (M ± SE) / AChE inhibition, serum (M ± SE): Table I, 10 min, salicylate
Method: The acetylcholinesterase (AchE) inhibition in the brain and serum was tested for the heptyl derivative in comparison with physostigmine. Both physostigmine and heptyl derivative were used in form of salycilate and dissolved in distilled water with carbossimethyl cellulose sodium salt at 2%.

[5] = test system: cerebral acetylcholinesterase (AchE); format: in vivo, mice
[6] = biological target: T1, acetylcholinesterase originating from "Electrophorus electricus"; experiment: biochemical
[7] = test system: male Swiss mice; experiment: acute toxicity (lethal dose) in mice; format: in vivo
Method: as §1, §2, §3

[8] = test system: male Swiss mice; experiment: antagonism towards the central stimulating effects of scopolamine; format: in vivo
Method: as §4, §2
At the central cholinergic antagonists exert a stimulating action on spontaneous activity, a study was carried out of the antagonism towards the stimulating effects of scopolamine (a typical anticholinergic drug which acts at the central level) by the heptyl derivative. […] These activities show the existence of antagonism towards the central effects of scopolamine, indicative of a central effect of the heptyl derivative.

[9] = test system: mice implanted with parietal electrodes; experiment: electrocorticographic activity; format: in vivo; details: 10 mg/kg, 15 minutes after administration
Method: as §4, §2
The […] was recorded by a Beckmann polygraph.

[10] = Table II, i.p. equiactive doses: Phys. 0.2, Hept. 1.0 mg/Kg
[11] = bimolecular rate constant, value = ki × 10^-5
[12] = first order carbamylation rate constant
[13] = first order reactivation rate constant, value = k3 × 10^2

CNC(=O)Oc1ccc2c(c1)[C@]1(C)CCN(C)[C@@H]1N2C [Eserine, reference compound]
LD50 at 2 h [1]: 0.6 mg/kg
effect on spontaneous locomotor activity (analogous to depressing effect of heptyl derivative) ([2]; doses between 0.1 and 0.3 mg/kg): An analogous effect
k2 (± S.E.) [3]: 8.8 ± 1.0
k3 × 10^2 (± S.E.) [3]: 5.4 ± 0.2
ki × 10^-5 (± S.E.) [3]: 26.6 ± 0.8
AChE inhibition, brain (M ± SE) ([4]; 0.15 mg/kg i.p.): 39.18 ± 4.32%
% AChE Inhibition, brain, 60 minutes (M ± SE) [4, 10]: 12.47 ± 2.83%
% AChE Inhibition, brain, 120 minutes (M ± SE) [4, 10]: 3.28 ± 1.99%
effect on coloration of cerebral tissues (AchE inhibition) ([5]; 0.4 and 0.5 mg/kg): no evident effect

CCNC(=O)Oc1ccc2c(c1)[C@]1(C)CCN(C)[C@@H]1N2C [Ethyl-]
ki × 10^-5 (± S.E.) [3, 11]: 2.3 ± 0.1
k2 (± S.E.) [3, 12]: 3.5 ± 1.1
k3 × 10^2 (± S.E.) [3, 13]: 2.5 ± 0.3
IC50 [6]: 1000 nM
Ki [6]: 130 nM

CCCCCCCCCCCNC(=O)Oc1ccc2c(c1)[C@]1(C)CCN(C)[C@@H]1N2C [Undecyl-, trimethyl-1,3a,8-hexahydro-1,2,3,3a,8,8a-pyrrol[2,3-b]indole-5(3aS, 8aR) undecylcarbamate]
ki × 10^-5 (± S.E.) [3, 11]: 0.8 ± 0.1
IC50 [6]: 2900 nM

CCN(CC)C(=O)Oc1ccc2c(c1)[C@]1(C)CCN(C)[C@@H]1N2C [diethyl derivative, Pyrrolo [2,3-b]indol-5-ol,3,3a,8,8a-hexahydrol,3a,8-trimethyl-diethylcarbamate (ester), (3aS-cis)]
LD50 at 2 h [1]: 38 mg/kg
ki × 10^-5 (± S.E.) [3, 11]: 0.004
IC50 [6]: 680000 nM

CN(C)C(=O)Oc1ccc2c(c1)[C@]1(C)CCN(C)[C@@H]1N2C [dimethyl derivative, Pyrrolo [2,3-b]indol-5-ol,3,3a,8,8a-hexahydro-1,3a,8-trimethyl-dimethylcarbamate (ester),(3aS-cis)]
LD50 at 2 h [1]: 9 mg/kg
ki × 10^-5 (± S.E.) [3, 11]: 0.2 ± 0.05
k2 (± S.E.) [3, 12]: 8.8 ± 3.3
k3 × 10^2 (± S.E.) [3, 13]: 8.5 ± 1.2
IC50 [6]: 3100 nM
Ki [6]: 348 nM

CCCCCCCNC(=O)Oc1ccc2c(c1)[C@]1(C)CCN(C)[C@@H]1N2C [heptyl derivative, trimethyl-1,3a,8-hexahydro-1,2,3,3a,8,8a-pyrrol[2,3-b]indole-5(3aS, 8aR) heptylcarbamate]
lethal dose 100 (LD100) ([7]; injection): 45 mg/kg
lethal dose 50 compared with physostigmine ([7]; ratio to LD50 of physostigmine): about 60 times greater
LD50 at 2 h [1]: 35 mg/kg
reduction in locomotor activity compared with the controls ([2]; 5 mg/kg): 25%
influence on spontaneous locomotor activity ([2]; between 0.1 mg/kg and 3 mg/kg): does not influence spontaneous activity
effect on spontaneous locomotor activity ([2]; doses higher than 3 mg/kg): a depressing effect is observed
antagonism of scopolamine-induced stimulation ([8]; 3 mg/kg against scopolamine 1 mg/kg): restored the activity to the control values
effect of the dose per se ([8]; 3 mg/kg alone): ineffective
ki × 10^-5 (± S.E.) [3, 11]: 2.8 ± 0.1
k2 (± S.E.) [3, 12]: 7.2 ± 3.6
k3 × 10^2 (± S.E.) [3, 13]: 0.71 ± 0.08
AChE inhibition, brain (M ± SE) ([4]; 0.50 mg/kg i.p.): 25.55 ± 11.64%
AChE inhibition, serum (M ± SE) ([4]; 0.50 mg/kg i.p.): 20.85 ± 5.64%
AChE inhibition, brain (M ± SE) ([4]; 1.00 mg/kg i.p.): 50.00 ± 1.32%
AChE inhibition, serum (M ± SE) ([4]; 1.00 mg/kg i.p.): 59.40 ± 1.99%
AChE inhibition, brain (M ± SE) ([4]; 2.00 mg/kg i.p.): 53.62 ± 10.51%
AChE inhibition, serum (M ± SE) ([4]; 2.00 mg/kg i.p.): 67.42 ± 4.29%
AChE inhibition, brain (M ± SE) ([4]; 4.00 mg/kg i.p.): 72.35 ± 5.92%
AChE inhibition, serum (M ± SE) ([4]; 4.00 mg/kg i.p.): 79.42 ± 2.89%
% AChE Inhibition, brain, 10 minutes (M ± SE) [4, 10]: 50.00 ± 1.32%
% AChE Inhibition, brain, 60 minutes (M ± SE) [4, 10]: 28.46 ± 9.56%
% AChE Inhibition, brain, 120 minutes (M ± SE) [4, 10]: 22.45± 2.54%
% AChE Inhibition, serum, 10 minutes (M ± SE) [4, 10]: 59.40 ± 1.99%
% AChE Inhibition, serum, 60 minutes (M ± SE) [4, 10]: 41.15 ± 4.29%
% AChE Inhibition, serum, 120 minutes (M ± SE) [4, 10]: 21.53 ± 2.31%
effect on coloration of cerebral tissues (AchE inhibition) ([5]; 20 mg/kg, injected 15 minutes before sacrifice): evident diminution in the coloration of the cerebral tissues
duration of effect on coloration of cerebral tissues ([5]; 30 mg/kg): remained for more than one hour
effect on coloration of cerebral tissues (AchE inhibition) ([5]; 30 mg/kg, compared with 20 mg/kg): even more marked
electrocorticographic amplitude [9]: an increase in its amplitude
electrocorticographic rate [9]: a slowing down of the electrocorticographic rate
IC50 [6]: 1000 nM
Ki [6]: 53 nM

CCCNC(=O)Oc1ccc2c(c1)[C@]1(C)CCN(C)[C@@H]1N2C [n.Propyl-, trimethyl-1,3a,8-hexahydro-1,2,3a,8,8a-pyrrol[2,3-b]indole-5(3aS, 8aR) propylcarbamate]
ki × 10^-5 (± S.E.) [3, 11]: 0.9 ± 0.1
IC50 [6]: 2500 nM

CCCCNC(=O)Oc1ccc2c(c1)[C@]1(C)CCN(C)[C@@H]1N2C [n.butyl derivative]
LD50 at 2 h [1]: 6 mg/kg
ki × 10^-5 (± S.E.) [3, 11]: 2.0 ± 0.1
k2 (± S.E.) [3, 12]: 6.7 ± 3.5
k3 × 10^2 (± S.E.) [3, 13]: 0.45 ± 0.14
IC50 [6]: 3500 nM
Ki [6]: 26 nM

CCCCCCCCCNC(=O)Oc1ccc2c(c1)[C@]1(C)CCN(C)[C@@H]1N2C [n.nonyl derivative]
LD50 at 2 h [1]: 50 mg/kg
ki × 10^-5 (± S.E.) [3, 11]: 1.5 ± 0.1
IC50 [6]: 1500 nM

CN1[C@@H]2C[C@@H](OC(=O)[C@H](CO)c3ccccc3)C[C@H]1[C@@H]1O[C@@H]12 [scopolamine, reference compound]
increase in basic locomotor activity ([8]; scopolamine 1 mg/kg): 100%
